According to US20120095055A1, “HEXAHYDROCYCLOPENTYL[f]INDAZOLE 5-HYDROXYMETHYL ETHANOLS AND DERIVATIVES THEREOF AS SELECTIVE GLUCOCORTICOID RECEPTOR MODULATORS” (Merck Sharp & Dohme, Corp., priority 2009, published 2012):

target: T1, glucocorticoid receptor (GR) (Homo sapiens, UniProt P04150); test: GR Ligand Binding Assay (3H-dexamethasone displacement, HeLa cell lysate); details: 3H-DEX trace, DEX as reference, read-out: GR BIND Ki
T1 construct: endogenous in cells; host or cells: HeLa (ATCC) cell lysate supernatant
T1 sequence (P04150 1-777): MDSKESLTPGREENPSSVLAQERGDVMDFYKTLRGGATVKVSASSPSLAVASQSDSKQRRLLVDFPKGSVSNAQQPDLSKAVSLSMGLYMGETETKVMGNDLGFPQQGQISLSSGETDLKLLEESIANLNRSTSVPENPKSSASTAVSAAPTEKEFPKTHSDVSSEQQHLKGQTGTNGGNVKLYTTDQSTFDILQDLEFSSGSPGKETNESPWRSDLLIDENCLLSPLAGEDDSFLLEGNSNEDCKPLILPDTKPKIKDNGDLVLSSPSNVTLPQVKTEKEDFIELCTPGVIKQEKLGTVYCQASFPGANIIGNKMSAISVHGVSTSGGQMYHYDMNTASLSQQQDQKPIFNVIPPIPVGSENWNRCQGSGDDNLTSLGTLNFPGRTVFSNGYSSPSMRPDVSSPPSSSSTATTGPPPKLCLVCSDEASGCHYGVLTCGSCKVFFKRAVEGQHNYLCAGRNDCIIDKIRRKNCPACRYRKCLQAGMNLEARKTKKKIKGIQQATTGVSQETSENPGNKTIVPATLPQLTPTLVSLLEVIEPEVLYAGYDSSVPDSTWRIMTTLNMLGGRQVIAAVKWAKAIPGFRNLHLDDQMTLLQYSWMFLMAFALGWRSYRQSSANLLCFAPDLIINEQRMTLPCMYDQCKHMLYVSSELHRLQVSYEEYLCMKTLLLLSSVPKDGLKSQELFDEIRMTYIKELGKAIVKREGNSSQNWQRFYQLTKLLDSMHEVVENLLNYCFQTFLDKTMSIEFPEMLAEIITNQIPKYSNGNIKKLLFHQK
Experimental: Binding Buffer: TEGM (10 mM Tris-HCl, 1 mM EDTA, 10% glycerol, 1 mM beta-mecaptoethanol, 10 mM Sodium Molybdate, pH 7.2)
Dexmethasone-methyl-^3H, (DEX*); (Amersham cat# TRK645) Dexamethasone(DEX) (Sigma, cat# D1756):
Cells (Hall R. E., et al., European Journal of Cancer, 30A: 484-490 (1994)) HeLa (ATCC) cultured in RPMI 1640 (Gibco 11835-055) containing 20 mM Hepes, 4 mM L-glu, 10 ug/ml of human insulin (Sigma, I-0259), 10% FBS and 20 ug/ml of Gentamicin (Gibco#15710-072) are rinsed twice in PBS. Phenol red-free Trypsin-EDTA is diluted in the same PBS 1:10. The cell layers are rinsed with 1× Trypsin, extra Trypsin is poured out, and the cell layers are incubated at 37° C. for ˜2 min. The flask is tapped and checked for signs of cell detachment. Once the cells begin to slide off the flask, the complete media is added. The cells are counted at this point, then diluted to the appropriate concentration and split into flasks or dishes for further culturing (Usually 1:3 to 1:6 dilution).
When the cells are 70 to 85% confluent, they are detached as described above, and collected by centrifuging at 1000 g for 10 minutes at 4° C. The cell pellet is washed twice with TEGM (10 mM Tris-HCl, 1 mM EDTA, 10% glycerol, 1 mM beta-mercaptoethanol, 10 mM Sodium Molybdate, pH 7.2). After the final wash, the cells are resuspended in TEGM at a concentration of 10^7 cells/mL. The cell suspension is snap frozen in liquid nitrogen or ethanol/dry ice bath and transferred to −80° C. freezer on dry ice. Before setting up the binding assay, the frozen samples are left on ice-water to just thaw (˜1 hr). Then the samples are centrifuged at 12,500 g to 20,000 g for 30 min at 4° C. The supernatant is used to set-up assay right away. If using 50 μL of supernatant, the test compound can be prepared in 50 μL of the TEGM buffer.
1×TEGM buffer is prepared, and the isotope-containing assay mixture is prepared in the following order: EtOH (2% final concentration in reaction), ^3H-DEX (Amersham Biosciences) and 1×TEGM. [e.g. For 100 samples, 200 μL (100×2) of EtOH+4.25 μL of 1:10 ^3H—Dex stock+2300 μL (100×23) 1×TEGM]. The compound is serially diluted, e.g., if starting final conc. is 1 μM, and the compound is in 25 μL of solution, for duplicate samples, 75 μL of 4×1 μM solution is made and 3 μL of 100 μM is added to 72 μL of buffer, and 1:5 serial dilution.
25 μL, of 3H-DEX (6 nM) trace and 25 μL compound solution are first mixed together, followed by addition of 50 μL receptor solution. The reaction is gently mixed, spun briefly at about 200 rpm and incubated at 4° C. overnight. 100 μL of 50% HAP slurry is prepared and added to the incubated reaction which is then vortexed and incubated on ice for 5 to 10 minutes. The reaction mixture is vortexed twice more to resuspend HAP while incubating reaction. The samples in 96-well format are then washed in wash buffer using The FilterMate™ Universal Harvester plate washer (Packard). The washing process transfers HAP pellet containing ligand-bound expressed receptor to Unifilter-96 GF/B filter plate (Packard). The HAP pellet on the filter plate is incubated with 50 μL of MICROSCINT (Packard) scintillint for 30 minutes before being counted on the TopCount microscintillation counter (Packard). IC50s are calculated using DEX as a reference.

SMILES	Ki
C[C@]12Cc3cnn(-c4ccc(F)cc4)c3C=C1CC[C@@]2(CO)CC(O)C(F)(F)F (single isomer, unassigned) [Example 28b]	5.4 nM
C[C@]12Cc3cnn(-c4ccccc4)c3C=C1CC[C@@]2(CO)CC(O)c1cccnc1 (single isomer, unassigned) [Example 29b]	8.2 nM
C[C@]12Cc3cnn(-c4ccc(F)cc4)c3C=C1CC[C@@]2(CO)CC(O)c1ccccn1 (single isomer, unassigned) [Example 1b]	4 nM
CC(C)C(O)C[C@]1(CO)CCC2=Cc3c(cnn3-c3ccc(F)cc3)C[C@@]21C (single isomer, unassigned) [Example 14b]	14.1 nM
C[C@]12Cc3cnn(-c4ccc(F)cc4)c3C=C1CC[C@@]2(CO)CC1OC(=O)c2ccccc21 (stereo partly drawn) [Example 11, 3-{[(4αS,5R)-1-(4-fluorophenyl)-5-(hydroxymethyl)-4α-methyl-1,4,4α,5,6,7,7a,8-octahydrocyclopenta[f]indazol-5-yl]methyl}-2-benzofuran-1(3H)-one]	19.2 nM
C[C@]12Cc3cnn(-c4ccccc4)c3C=C1CC[C@@]2(CO)CC(O)c1ccccn1 (single isomer, unassigned) [Example 23a]	7.7 nM
C[C@]12Cc3cnn(-c4ccc(F)cc4)c3C=C1CC[C@@]2(CO)CC(O)c1ccccn1 (single isomer, unassigned) [Example 1a]	5.2 nM
COc1ccc(C(O)C[C@]2(CO)CCC3=Cc4c(cnn4-c4ccc(F)cc4)C[C@@]32C)nc1 (single isomer, unassigned) [Example 24b]	7.5 nM
C[C@]12Cc3cnn(-c4ccc(F)cc4)c3C=C1CC[C@@]2(CO)CC(O)c1ccc(F)cn1 (single isomer, unassigned) [Example 22b]	5.1 nM
C[C@]12Cc3cnn(-c4ccccc4)c3C=C1CC[C@@]2(CO)CC(O)c1cccnc1 (single isomer, unassigned) [Example 29a]	11.8 nM
C[C@]12Cc3cnn(-c4ccc(F)cc4)c3C=C1CC[C@@]2(CO)CC(O)c1cccnc1 (single isomer, unassigned) [Example 15b]	8.3 nM
C[C@]12Cc3cnn(-c4ccc(F)cc4)c3C=C1CC[C@@]2(CO)CC(O)c1cccnc1 (single isomer, unassigned) [Example 15a]	10 nM
COc1cccnc1C(O)C[C@]1(CO)CCC2=Cc3c(cnn3-c3cccc(F)c3)C[C@@]21C (single isomer, unassigned) [Example 26a]	8.6 nM
C[C@]12Cc3cnn(-c4cccc(F)c4)c3C=C1CC[C@@]2(CO)CC(O)c1ccccn1 (single isomer, unassigned) [Example 19b]	9 nM

Now those with a lower Ki, led by results:

Ki	SMILES
0.9 nM	C[C@]12Cc3cnn(-c4ccc(F)cc4)c3C=C1CC[C@@]2(CO)CC(O)c1ccccc1Cl (single isomer, unassigned) [Example 3b]
2.5 nM	C[C@]12Cc3cnn(-c4ccc(F)cc4)c3C=C1CC[C@@]2(CO)CC(O)c1ccccc1 (single isomer, unassigned) [Example 13a]
3.3 nM	C[C@]12Cc3cnn(-c4ccccc4)c3C=C1CC[C@@]2(CO)CC(O)c1ccccn1 (single isomer, unassigned) [Example 23b]
3.1 nM	COc1ccc(C(O)C[C@]2(CO)CCC3=Cc4c(cnn4-c4ccc(F)cc4)C[C@@]32C)nc1 (single isomer, unassigned) [Example 24a]
1.2 nM	C[C@]12Cc3cnn(-c4ccc(F)cc4)c3C=C1CC[C@@]2(CO)CC(O)c1cccc(Cl)c1 (stereo partly drawn) [Example 8, 1-(3-chlorophenyl)-2-[(4αS,5R)-1-(4-fluorophenyl)-5-(hydroxymethyl)-4α-methyl-1,4,4α,5,6,7-hexahydrocyclopenta[f]indazol-5-yl]ethanol]
3.7 nM	COc1cccnc1C(O)C[C@]1(CO)CCC2=Cc3c(cnn3-c3ccc(F)cc3)C[C@@]21C (single isomer, unassigned) [Example 21b]
1.7 nM	C[C@]12Cc3cnn(-c4ccc(F)cc4)c3C=C1CC[C@@]2(CO)CC(O)C1CCCCC1 (single isomer, unassigned) [Example 18a, 1-cyclohexyl-2-[(4αS)-1-(4-fluorophenyl)-5-(hydroxymethyl)-4α-methyl-1,4,4α,5,6,7-hexahydrocyclopenta[f]indazol-5-yl]ethanol]
0.6 nM	C[C@]12Cc3cnn(-c4ccc(F)cc4)c3C=C1CC[C@@]2(CO)CC(O)c1cccc(C(F)(F)F)c1 (single isomer, unassigned) [Example 7a]
1.4 nM	Cc1cccc(C(O)C[C@]2(CO)CCC3=Cc4c(cnn4-c4ccc(F)cc4)C[C@@]32C)c1 (single isomer, unassigned) [Example 5a]
